# Measurements published in US12479840B2, “HMG-CoA reductase degradation inducing compound” (Uppthera, priority 2020, dated 2025).
# Biological target: T1, HMG-CoA reductase (Homo sapiens, UniProt P04035)
# T1 construct: endogenous in cells; host or cells: HepG2 (Korea Cell Line Bank)
# T1 sequence (P04035 1-888): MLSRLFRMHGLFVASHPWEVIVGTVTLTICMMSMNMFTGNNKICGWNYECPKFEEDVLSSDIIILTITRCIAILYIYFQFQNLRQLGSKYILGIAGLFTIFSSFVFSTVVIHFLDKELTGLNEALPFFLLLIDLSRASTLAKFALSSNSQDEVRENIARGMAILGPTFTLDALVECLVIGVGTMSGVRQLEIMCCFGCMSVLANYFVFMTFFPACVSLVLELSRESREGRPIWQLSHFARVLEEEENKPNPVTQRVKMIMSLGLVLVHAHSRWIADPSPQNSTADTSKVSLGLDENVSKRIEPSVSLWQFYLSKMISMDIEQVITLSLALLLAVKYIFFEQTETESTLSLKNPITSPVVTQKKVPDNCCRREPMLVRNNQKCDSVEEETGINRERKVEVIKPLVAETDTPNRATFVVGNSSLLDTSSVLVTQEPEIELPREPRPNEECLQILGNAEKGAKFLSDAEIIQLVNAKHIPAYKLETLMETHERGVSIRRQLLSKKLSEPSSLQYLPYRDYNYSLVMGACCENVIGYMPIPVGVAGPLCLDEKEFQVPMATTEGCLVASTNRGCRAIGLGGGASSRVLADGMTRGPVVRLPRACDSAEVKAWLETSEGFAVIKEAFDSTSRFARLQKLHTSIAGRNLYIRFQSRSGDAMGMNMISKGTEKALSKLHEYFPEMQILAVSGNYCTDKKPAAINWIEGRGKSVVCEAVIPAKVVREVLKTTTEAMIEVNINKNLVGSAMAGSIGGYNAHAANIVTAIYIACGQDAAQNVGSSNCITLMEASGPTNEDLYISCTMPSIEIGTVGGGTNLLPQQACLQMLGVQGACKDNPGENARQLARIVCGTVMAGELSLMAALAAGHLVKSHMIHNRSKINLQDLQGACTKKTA
# Test: HMG-CoA reductase (HMGCR) degradation in HepG2 cells by western blotting
# Type: cell-based
# Conditions: treated for 18 hours, ratio of HMG-CoA reductase to GAPDH, read-out: DC50
# Procedure: HepG2, a human liver cancer cell line, was purchased from the Korea Cell Line Bank (KCLB), Seoul, Korea. The passage in cell culture was maintained at P105 to P110.
# The compounds of the present invention were completely dissolved in DMSO and used in the experiment. 2×10^5 cells were seeded for each well of a 12-well plate (SPL), and the cells were cultured in the culture medium in a total volume of 2 ml. Each of the compounds of the present invention and comparative compounds was diluted three folds from the highest concentration of 3 μM to the lowest concentration in 10 points and treated for 18 hours.
# Each of the compounds the present invention and comparative compounds was diluted three folds from the highest concentration of 3 μM to the lowest concentration of […] in 10 points and was treated for 18 hours.
# For SDS-PAGE and Western blotting, 1×RIPA lysis buffer (Rockland, Cat. No. MB-030-0050; Lot no. 39751), 100× Protease Inhibitor Cocktail (Quartett, Cat. No. PPI1015; Lot no. PCO50038424), Pierce™ BCA protein assay kit (ThermoScientific, Cat. No. 23225; Lot no. UC276876), albumin standard (ThermoScientific, Cat. No. 23209; Lot no. UB269561), 4-15% Mini-PROTEAN TGX stain-free gel (Bio-rad, Cat. No. 4568085; Lot no. L007041B), 10× Tris/Glycine/SDS buffer (Bio-rad, Cat. No. 1610732; Lot no. 10000044375B); 10×TBS (Bio-rad, Cat. No. 1706435; Lot no. 1000045140B), 10% Tween 20 (Cat. No. 1610781; Lot no. L004152B), Color protein standard broad range (NEB, Cat. No. P7719S; Lot no. 10040349), 4× Laemmli sample buffer (Bio-rad, Cat. No. 1610747; Lot no. L004133B), β-mercaptoethanol (Sigma-Aldrich, Cat. No. M3148; Lot no. 60-24-2), SuperBlock™ T20 (TBS) blocking buffer (ThermoScientific, Cat. No. 37536; Lot no. UC282578), 1M sodium azide solution (Sigma-Aldrich, Cat. No. 08591-1 mL-F; Lot no. BCBV4989), α-Rabbit pAb to Ms IgG (abcam, Cat. No. ab97046; Lot no. GR3252115-1), α-Goat pAb to Rb IgG (CST, Cat. No. 7074S; Lot no. 28), α-GAPDH (abcam, Cat. No. ab8245), α-HMGCR (GeneTex, Cat. No. GTX54088; Lot no. 821903509), ECL™ Prime western blotting reagents (GE Healthcare, Cat. No. RPN2232; Lot no. 17001655), Ponceau S solution (Sigma-Aldrich, Cat. No. P7170; Lot no. SLBV4112), Difco™ Skim milk (BD, Cat. No. 232100; Lot no. 8346795), and iBlot® 2 NC Regular stacks (Invitrogen, Cat. No. IB23001; Lot no. 2NR110619-02), were used.
# For cell harvesting, the cells were first separated from the plate using trypsin and then washed with the medium and PBS. Specifically, the medium was suctioned off and washed with 1 mL of PBS, and PBS was suctioned off. The cells were treated with 0.5 mL TrypLE™ Express at 37° C. for 7 minutes to separate the cells, and then 0.5 mL of complete medium was added to collect 1 mL of cell culture solution. Then, 1 mL of the cell collection solution was centrifuged at 8,000 rpm for 120 seconds, and the supernatant was removed. After washing with 0.2 mL of PBS, the PBS was removed.
# For cell lysis, a lysis buffer was added and cell debris was removed to obtain a cell lysate. Specifically, the cells were treated with 70 μL of 1×RIPA buffer containing a protease inhibitor and incubated for 30 minutes on ice. Then, the cells were centrifuged at 4° C. and 15,000 rpm for 10 minutes to obtain a cell lysate.
# Then, a standard curve was obtained using the BCA assay, and the protein mass in the lysate was quantified by substituting the curve. The mixture was incubated at 37° C. for 30 minutes using 20 μL of standard or sample solution, and 200 μL of BCA or Bradford solution, and measured at 562 nm absorbance. Samples were prepared by adding 4× sample buffer so that the quantity of protein added to each well was 15 μg.
# Sodium dodecyl sulfate polyacrylamide gel electrophoresis (SDS-PAGE) was performed by setting a running time of 100 minutes at 120 V on a 4-15% Mini-PROTEAN TGX stain-free gel (15 well). Transferring was performed on iBlot® 2 NC Mini stacks at P0 mode of the dry blotting system. […]
row,Compound,DC50
1,"C[C@H]1C=C2C=C[C@H](C)[C@H](CC[C@@H]3C[C@@H](O)CC(=O)O3)[C@H]2[C@@H](OC(=O)NCCCCCNc2cccc3c2C(=O)N(C2CCC(=O)NC2=O)C3=O)C1 (stereo partly drawn) [Compound 58, (1S,3R,7S,8S,8aR)-8-(2-((2R,4R)-4-hydroxy-6-oxotetrahydro-2H-pyran-2-yl)ethyl)-3,7-dimethyl-1,2,3,7,8,8a-hexahydronaphthalen-1-yl (5-((2-(2,6-dioxopiperidin-3-yl)-1,3-dioxoisoindolin-4-yl)amino)pentyl)carbamate]",50 to 500 nM
2,"CC(C)[Si](O[C@H]1CC(=O)O[C@H](CC[C@@H]2[C@@H]3C(=C[C@H](C)C[C@@H]3OC(=O)NCCOCCOCCNc3cccc4c3C(=O)N(C3CCC(=O)NC3=O)C4=O)C=C[C@@H]2C)C1)(C(C)C)C(C)C (stereo partly drawn) [Compound 70, (1S,3R,7S,8S,8aR)-3,7-dimethyl-8-(2-((2R,4R)-6-oxo-4-((triisopropylsilyl)oxy)tetrahydro-2H-pyran-2-yl)ethyl)-1,2,3,7,8,8a-hexahydronaphthalen-1-yl (2-(2-(2-((2-(2,6-dioxopiperidin-3-yl)-1,3-dioxoisoindolin-4-yl)amino)ethoxy)ethoxy)ethyl)carbamate]",< 50 nM
3,"Cc1ncsc1-c1ccc(CNC(=O)[C@@H]2C[C@@H](O)CN2C(=O)[C@@H](NC(=O)COCCOCCNC(=O)O[C@H]2C[C@@H](C)C=C3C=C[C@H](C)[C@H](CC[C@@H]4C[C@@H](O[Si](C)(C)C(C)(C)C)CC(=O)O4)[C@H]32)C(C)(C)C)cc1 [Compound 19, (1S,3R,7S,8S,8aR)-8-(2-((2R,4R)-4-((tert-butyldimethylsilyl)oxy)-6-oxotetrahydro-2H-pyran-2-yl)ethyl)-3,7-dimethyl-1,2,3,7,8,8a-hexahydronaphthalen-1-yl (2-(2-(2-(((S)-1-((2S,4R)-4-hydroxy-2-((4-(4-methylthiazol-5-yl)benzyl)carbamoyl)pyrrolidin-1-yl)-3,3-dimethyl-1-oxobutan-2-yl)amino)-2-oxoethoxy)ethoxy)ethyl)carbamate]",< 50 nM
4,"Cc1ncsc1-c1ccc(CNC(=O)[C@@H]2C[C@@H](O)CN2C(=O)[C@@H](NC(=O)COCCOCCNC(=O)O[C@H]2C[C@@H](C)C=C3C=C[C@H](C)[C@H](CC[C@@H]4C[C@@H](O)CC(=O)O4)[C@H]32)C(C)(C)C)cc1 [Compound 15, (1S,3R,7S,8S,8aR)-8-(2-((2R,4R)-4-hydroxy-6-oxotetrahydro-2H-pyran-2-yl)ethyl)-3,7-dimethyl-1,2,3,7,8,8a-hexahydronaphthalen-1-yl (2-(2-(2-(((S)-1-((2S,4R)-4-hydroxy-2-((4-(4-methylthiazol-5-yl)benzyl)carbamoyl)pyrrolidin-1-yl)-3,3-dimethyl-1-oxobutan-2-yl)amino)-2-oxoethoxy)ethoxy)ethyl)carbamate]",< 50 nM
5,"C[C@H]1C=C2C=C[C@H](C)[C@H](CC[C@@H]3C[C@@H](O[Si](C)(C)C(C)(C)C)CC(=O)O3)[C@H]2[C@@H](OC(=O)NCCCOCCCCNc2cccc3c2C(=O)N(C2CCC(=O)NC2=O)C3=O)C1 (stereo partly drawn) [Compound 120, (1S,3R,7S,8S,8aR)-8-(2-((2R,4R)-4-((tert-butyldimethylsilyl)oxy)-6-oxotetrahydro-2H-pyran-2-yl)ethyl)-3,7-dimethyl-1,2,3,7,8,8a-hexahydronaphthalen-1-yl (3-(4-((2-(2,6-dioxopiperidin-3-yl)-1,3-dioxoisoindolin-4-yl)amino)butoxy)propyl)carbamate]",50 to 500 nM
6,"C[C@H]1C=C2C=C[C@H](C)[C@H](CC[C@@H]3C[C@@H](O)CC(=O)O3)[C@H]2[C@@H](OC(=O)NCCOCCNC(=O)COc2cccc3c2C(=O)N(C2CCC(=O)NC2=O)C3=O)C1 (stereo partly drawn) [Compound 129, (1S,3R,7S,8S,8aR)-8-(2-((2R,4R)-4-hydroxy-6-oxotetrahydro-2H-pyran-2-yl)ethyl)-3,7-dimethyl-1,2,3,7,8,8a-hexahydronaphthalen-1-yl (2-(2-(2-((2-(2,6-dioxopiperidin-3-yl)-1,3-dioxoisoindolin-4-yl)oxy)acetamido)ethoxy)ethyl)carbamate]",< 50 nM
7,"C[C@H]1C=C2C=C[C@H](C)[C@H](CC[C@@H]3C[C@@H](O[Si](C)(C)C(C)(C)C)CC(=O)O3)[C@H]2[C@@H](OC(=O)NCCOCCOCCOCC(=O)Nc2cccc3c2C(=O)N(C2CCC(=O)NC2=O)C3=O)C1 (stereo partly drawn) [Compound 98, (1S,3R,7S,8S,8aR)-8-(2-((2R,4R)-4-((tert-butyldimethylsilyl)oxy)-6-oxotetrahydro-2H-pyran-2-yl)ethyl)-3,7-dimethyl-1,2,3,7,8,8a-hexahydronaphthalen-1-yl (2-(2-(2-(2-((2-(2,6-dioxopiperidin-3-yl)-1,3-dioxoisoindolin-4-yl)amino)-2-oxoethoxy)ethoxy)ethoxy)ethyl)carbamate]",< 50 nM
8,"Cc1ncsc1-c1ccc(CNC(=O)[C@@H]2C[C@@H](O)CN2C(=O)[C@@H](NC(=O)CCCc2cn(CCCCNC(=O)O[C@H]3C[C@@H](C)C=C4C=C[C@H](C)[C@H](CC[C@@H]5C[C@@H](O)CC(=O)O5)[C@H]43)nn2)C(C)(C)C)cc1 [Compound 161, (1S,3R,7S,8S,8aR)-8-(2-((2R,4R)-4-hydroxy-6-oxotetrahydro-2H-pyran-2-yl)ethyl)-3,7-dimethyl-1,2,3,7,8,8a-hexahydronaphthalen-1-yl (4-(4-(4-(((S)-1-((2S,4R)-4-hydroxy-2-((4-(4-methylthiazol-5-yl)benzyl)carbamoyl)pyrrolidin-1-yl)-3,3-dimethyl-1-oxobutan-2-yl)amino)-4-oxobutyl)-1H-1,2,3-triazol-1-yl)butyl)carbamate]",< 50 nM
